Assay results from ChEMBL document CHEMBL4052714, “Synthesis and antibacterial activity of novel 4″-O-(1-aralkyl-1,2,3-triazol-4-methyl-carbamoyl) azithromycin analogs” (2017).
Values after ≈ are worked out from the molar mass of the structure shown.

What was measured:
Format in all cases: functional
Staphylococcus aureus [1] = test: Antibacterial activity against erythromycin-susceptible Staphylococcus aureus ATCC 25923
Streptococcus pneumoniae [2] = test: Antibacterial activity against erythromycin-susceptible Streptococcus pneumoniae ATCC 49619
Staphylococcus aureus [3] = test: Antibacterial activity against methicillin-susceptible Staphylococcus aureus ATCC 29213
Streptococcus pyogenes [4] = test: Antibacterial activity against erythromycin-susceptible Streptococcus pyogenes isolate S2
Streptococcus pyogenes [5] = test: Antibacterial activity against erythromycin-resistant Streptococcus pyogenes isolate R2
Streptococcus pneumoniae [6] = test: Antibacterial activity against erythromycin-resistant Streptococcus pneumoniae B1 expressing ermB gene
Streptococcus pneumoniae [7] = test: Antibacterial activity against erythromycin-resistant Streptococcus pneumoniae A22072 expressing mefA gene
Streptococcus pneumoniae [8] = test: Antibacterial activity against erythromycin-resistant Streptococcus pneumoniae AB11 expressing ermB/mefA gene
Escherichia coli = test: Antibacterial activity against Escherichia coli ATCC 25922
Pseudomonas aeruginosa = test: Antibacterial activity against Pseudomonas aeruginosa ATCC 27853
Streptococcus pneumoniae [9] = test: Potency index, ratio of azithromycin MIC to compound MIC for erythromycin-resistant Streptococcus pneumoniae B1 expressing ermB gene
Streptococcus pneumoniae [10] = test: Potency index, ratio of azithromycin MIC to compound MIC for erythromycin-resistant Streptococcus pneumoniae A22072 expressing mefA gene
Streptococcus pneumoniae [11] = test: Potency index, ratio of azithromycin MIC to compound MIC for erythromycin-resistant Streptococcus pneumoniae AB11 expressing ermB/mefA gene
Streptococcus pyogenes [12] = test: Potency index, ratio of azithromycin MIC to compound MIC for erythromycin-resistant Streptococcus pyogenes isolate R2
Streptococcus pyogenes [13] = test: Potency index, ratio of clarithromycin MIC to compound MIC for erythromycin-resistant Streptococcus pyogenes isolate R2
Streptococcus pneumoniae [14] = test: Potency index, ratio of clarithromycin MIC to compound MIC for erythromycin-resistant Streptococcus pneumoniae B1 expressing ermB gene
Streptococcus pneumoniae [15] = test: Potency index, ratio of clarithromycin MIC to compound MIC for erythromycin-resistant Streptococcus pneumoniae A22072 expressing mefA gene
Streptococcus pneumoniae [16] = test: Potency index, ratio of clarithromycin MIC to compound MIC for erythromycin-resistant Streptococcus pneumoniae AB11 expressing ermB/mefA gene
Staphylococcus aureus [17] = test: Potency index, ratio of azithromycin MIC to compound MIC for erythromycin-susceptible Staphylococcus aureus ATCC 25923
Streptococcus pyogenes [18] = test: Potency index, ratio of azithromycin MIC to compound MIC for erythromycin-susceptible Streptococcus pyogenes isolate S2

CC[C@H]1OC(=O)[C@H](C)[C@@H](O[C@H]2C[C@@](C)(OC)[C@@H](OC(=O)NCc3cn(Cc4ccc(Cl)cc4)nn3)[C@H](C)O2)[C@H](C)[C@@H](O[C@@H]2O[C@H](C)C[C@H](N(C)C)[C@H]2O)[C@](C)(O)C[C@@H](C)CN(C)[C@H](C)[C@@H](OC(=O)NCc2ccc(OC)cc2)[C@]1(C)O
MIC (Staphylococcus aureus [1]): 0.008 µg/mL (≈ 0.00689 µM)
MIC (Streptococcus pneumoniae [2]): 0.125 µg/mL (≈ 0.108 µM)
MIC (Staphylococcus aureus [3]): 16 µg/mL (≈ 13.8 µM)
MIC (Streptococcus pyogenes [4]): < 0.002 µg/mL
MIC (Streptococcus pyogenes [5]): 1 µg/mL (≈ 0.861 µM)
MIC (Streptococcus pneumoniae [6]): 0.125 µg/mL (≈ 0.108 µM)
MIC (Streptococcus pneumoniae [7]): 0.06 µg/mL (≈ 0.0517 µM)
MIC (Streptococcus pneumoniae [8]): 0.125 µg/mL (≈ 0.108 µM)
MIC (Escherichia coli): 16 µg/mL (≈ 13.8 µM)
MIC (Pseudomonas aeruginosa): 8 µg/mL (≈ 6.89 µM)
Ratio (Streptococcus pneumoniae [9]): 1024 - 2133
Ratio (Streptococcus pneumoniae [10]): 32 - 133
Ratio (Streptococcus pneumoniae [11]): 1024 - 2048
Ratio (Streptococcus pyogenes [12]): 128
Ratio (Streptococcus pyogenes [13]): 128
Ratio (Streptococcus pneumoniae [14]): 1024 - 2133
Ratio (Streptococcus pneumoniae [15]): 32 - 133
Ratio (Streptococcus pneumoniae [16]): 1024 - 2048
Ratio (Staphylococcus aureus [17]): 31

CC[C@H]1OC(=O)[C@H](C)[C@@H](O[C@H]2C[C@@](C)(OC)[C@@H](OC(=O)NCc3cn(Cc4c(Cl)cccc4Cl)nn3)[C@H](C)O2)[C@H](C)[C@@H](O[C@@H]2O[C@H](C)C[C@H](N(C)C)[C@H]2O)[C@](C)(O)C[C@@H](C)CN(C)[C@H](C)[C@@H](OC(=O)NCc2ccc(OC)cc2)[C@]1(C)O
MIC (Staphylococcus aureus [1]): 0.25 µg/mL (≈ 0.209 µM)
MIC (Streptococcus pneumoniae [2]): 0.06 µg/mL (≈ 0.0502 µM)
MIC (Staphylococcus aureus [3]): 16 µg/mL (≈ 13.4 µM)
MIC (Streptococcus pyogenes [4]): < 0.002 µg/mL
MIC (Streptococcus pyogenes [5]): 1 µg/mL (≈ 0.837 µM)
MIC (Streptococcus pneumoniae [6]): 0.125 µg/mL (≈ 0.105 µM)
MIC (Streptococcus pneumoniae [7]): 0.03 µg/mL (≈ 0.0251 µM)
MIC (Streptococcus pneumoniae [8]): 0.25 µg/mL (≈ 0.209 µM)
MIC (Escherichia coli): 16 µg/mL (≈ 13.4 µM)
MIC (Pseudomonas aeruginosa): 16 µg/mL (≈ 13.4 µM)
Ratio (Streptococcus pneumoniae [9]): 1024 - 2133
Ratio (Streptococcus pneumoniae [10]): 32 - 133
Ratio (Streptococcus pneumoniae [11]): 1024 - 2048
Ratio (Streptococcus pneumoniae [14]): 1024 - 2133
Ratio (Streptococcus pneumoniae [15]): 32 - 133
Ratio (Streptococcus pneumoniae [16]): 1024 - 2048

CC[C@H]1OC(=O)[C@H](C)[C@@H](O[C@H]2C[C@@](C)(OC)[C@@H](OC(=O)NCc3cn(Cc4ccc(Cl)cc4Cl)nn3)[C@H](C)O2)[C@H](C)[C@@H](O[C@@H]2O[C@H](C)C[C@H](N(C)C)[C@H]2O)[C@](C)(O)C[C@@H](C)CN(C)[C@H](C)[C@@H](OC(=O)NCc2ccc(OC)cc2)[C@]1(C)O
MIC (Staphylococcus aureus [1]): 0.25 µg/mL (≈ 0.209 µM)
MIC (Streptococcus pneumoniae [2]): 0.06 µg/mL (≈ 0.0502 µM)
MIC (Staphylococcus aureus [3]): 16 µg/mL (≈ 13.4 µM)
MIC (Streptococcus pyogenes [4]): < 0.002 µg/mL
MIC (Streptococcus pyogenes [5]): 8 µg/mL (≈ 6.69 µM)
MIC (Streptococcus pneumoniae [6]): 0.125 µg/mL (≈ 0.105 µM)
MIC (Streptococcus pneumoniae [7]): 0.125 µg/mL (≈ 0.105 µM)
MIC (Streptococcus pneumoniae [8]): 0.25 µg/mL (≈ 0.209 µM)
MIC (Escherichia coli): 16 µg/mL (≈ 13.4 µM)
MIC (Pseudomonas aeruginosa): 16 µg/mL (≈ 13.4 µM)
Ratio (Streptococcus pneumoniae [9]): 1024 - 2133
Ratio (Streptococcus pneumoniae [10]): 32 - 133
Ratio (Streptococcus pneumoniae [11]): 1024 - 2048
Ratio (Streptococcus pneumoniae [14]): 1024 - 2133
Ratio (Streptococcus pneumoniae [15]): 32 - 133
Ratio (Streptococcus pneumoniae [16]): 1024 - 2048

CC[C@H]1OC(=O)[C@H](C)[C@@H](O[C@H]2C[C@@](C)(OC)[C@@H](OC(=O)NCc3cn(Cc4ccc(Cl)cc4Cl)nn3)[C@H](C)O2)[C@H](C)[C@@H](O[C@@H]2O[C@H](C)C[C@H](N(C)C)[C@H]2O)[C@](C)(O)C[C@@H](C)CN(C)[C@H](C)[C@@H](O)[C@]1(C)O
MIC (Staphylococcus aureus [1]): 1 µg/mL (≈ 0.969 µM)
MIC (Streptococcus pneumoniae [2]): 0.25 µg/mL (≈ 0.242 µM)
MIC (Staphylococcus aureus [3]): 16 µg/mL (≈ 15.5 µM)
MIC (Streptococcus pyogenes [4]): 0.016 µg/mL (≈ 0.0155 µM)
MIC (Streptococcus pyogenes [5]): 64 µg/mL (≈ 62 µM)
MIC (Streptococcus pneumoniae [6]): 0.5 µg/mL (≈ 0.484 µM)
MIC (Streptococcus pneumoniae [7]): 0.25 µg/mL (≈ 0.242 µM)
MIC (Streptococcus pneumoniae [8]): 0.25 µg/mL (≈ 0.242 µM)
MIC (Escherichia coli): 64 µg/mL (≈ 62 µM)
MIC (Pseudomonas aeruginosa): 32 µg/mL (≈ 31 µM)
Ratio (Streptococcus pyogenes [18]): 12.5
Ratio (Streptococcus pneumoniae [9]): 256
Ratio (Streptococcus pneumoniae [10]): 16
Ratio (Streptococcus pneumoniae [11]): 1024

CC[C@H]1OC(=O)[C@H](C)[C@@H](O[C@H]2C[C@@](C)(OC)[C@@H](OC(=O)NCc3cn(Cc4ccc(C)cc4)nn3)[C@H](C)O2)[C@H](C)[C@@H](O[C@@H]2O[C@H](C)C[C@H](N(C)C)[C@H]2O)[C@](C)(O)C[C@@H](C)CN(C)[C@H](C)[C@@H](OC(=O)NCc2ccc(OC)cc2)[C@]1(C)O
MIC (Staphylococcus aureus [1]): 0.06 µg/mL (≈ 0.0526 µM)
MIC (Streptococcus pneumoniae [2]): 0.125 µg/mL (≈ 0.11 µM)
MIC (Staphylococcus aureus [3]): 32 µg/mL (≈ 28.1 µM)
MIC (Streptococcus pyogenes [4]): < 0.002 µg/mL
MIC (Streptococcus pyogenes [5]): 8 µg/mL (≈ 7.01 µM)
MIC (Streptococcus pneumoniae [6]): 0.125 µg/mL (≈ 0.11 µM)
MIC (Streptococcus pneumoniae [7]): 0.03 µg/mL (≈ 0.0263 µM)
MIC (Streptococcus pneumoniae [8]): 0.25 µg/mL (≈ 0.219 µM)
MIC (Escherichia coli): 16 µg/mL (≈ 14 µM)
MIC (Pseudomonas aeruginosa): 64 µg/mL (≈ 56.1 µM)
Ratio (Streptococcus pneumoniae [9]): 1024 - 2133
Ratio (Streptococcus pneumoniae [10]): 32 - 133
Ratio (Streptococcus pneumoniae [11]): 1024 - 2048
Ratio (Streptococcus pneumoniae [14]): 1024 - 2133
Ratio (Streptococcus pneumoniae [15]): 32 - 133
Ratio (Streptococcus pneumoniae [16]): 1024 - 2048
